In US20060025448A1, “Hair growth stimulators” (CADILA HEALTHCARE LIMITED, priority 2004, published 2006):

Key:
male C57BL/6J mice = assay: Effect on hair growth (bald area) in high-fat diet fed male C57BL/6J mice; type: in vivo; details: 10 mg/kg orally; for growth of body hair (in words): high-fat diet fed male C57BL/6 mice, 28 days
Experimental: (§1) The C57BL/6 mice were housed on a lightdark cycle in a room with temperature (22±2° C.) and humidity control. They were fed either a high-fat diet (HFD) (49% fat, 18% protein, 33% carbohydrate) or a standard mouse diet (STD) (8% fat, 19% protein, 73% carbohydrate). Six-week-old C57BL/6J male mice were given HFD or STD diets for 17 wks before drug treatment started. […] After this, mice were weighed and treated as per the following three groups, while the diet treatment continued.
(§2) High-fat diet fed & vehicle treated (HFD-V), • High-fat diet fed & treated with 10 mg/kg Compound 2 (HFD-R 10 mg) • High-fat diet fed & treated with 10 mg/kg Compound 1 (HD-ZY 10 mg) • Compound 1 and Compound 2 were administered orally in distilled water with 0.1% Tween 80 one hour before the onset of the dark phase.
(§3) The animals were observed daily. Body weights were recorded daily, and the animals were photographed on 28th day on the back, The results are mentioned in Table 1 and Table 2.

[1] = Effect on body weight in high-fat diet fed male C57BL/6J mice; type: in vivo; details: for effect on body weight (in words): high-fat diet fed male C57BL/6 mice
Experimental: as §1, §2, §3

## Cc1c(C(=O)NN2CCCCC2)nn(-c2ccc(Cl)cc2Cl)c1-c1ccc(Cl)s1.Cl [Compound 1, Hydrochloride salt of 5-(5-Chloro-thiophen-2-yl)-1-(2,4-dichloro-phenyl)-4-methyl-1H-pyrazole-3-caxboxylic acid piperidin-1-ylamide]
Male C57BL/6J mice; high-fat diet fed male C57BL/6J mice, after 28th day of dosing, n = 6
  bald area (where hair growth or pigmentation has not appeared), Area (Mean ± Standard Error Mean): 0.011 ± 0.223 cm^2
Male C57BL/6J mice; 10 mg/kg
  growth of body hair (in words): significantly enhanced the growth of body hair
Male C57BL/6J mice; listed as compound 1, 10 mg/kg
  growth of body hair (in words): able to stimulate hair growth
[1]; high-fat diet fed male C57BL/6J mice, 10 mg/kg orally, 28 days, n = 6
  Change in Body Weight in 28 days versus Day 0: -1.7 ± 0.5 g
[1]; high-fat diet fed male C57BL/6J mice, 10 mg/kg orally, Day 28, n = 6
  Body Weight on Day 28: 26.9 ± 1.1 g
[1]; high-fat diet fed male C57BL/6J mice, 10 mg/kg orally, versus vehicle group, n = 6
  Change in Body Weight versus HFD-V: -3.3 ± 1.8 g
[1]; high-fat diet fed male C57BL/6J mice, Day 0 (baseline before treatment), n = 6
  Body Weight on Day 0: 29.2 ± 1.1 g
[1]; 10 mg/kg orally, 28 days, 10 mg/kg
  effect on body weight (in words): decrease in body weight
[1]; 10 mg/kg orally, 28 days, listed as compound 1, 10 mg/kg
  effect on body weight (in words): decreasing body weight
